SMILES strings stand for the structures.

This experiment deals with AKT1 (Homo sapiens, UniProt P31749). Kind of experiment: HTS off-chip mobility-shift assay, typical screen parameters for AKT1. The following applies: read-out: inhibition (control inhibitor). Format: biochemical. The text has this:
The following procedures describe the reagent and plate preparation for a HTS of an ATP-utilizing enzyme, such as a protein kinase, run in an off-chip mobility-shift assay format. The following provides an HTS protocol for running a protein kinase HTS screen on a Caliper HTS 250 microfluidics system. The following parameters are dependent on the protein kinase used and can be determined by one skilled in the art as part of a typical assay development process. For example, the peptide substrate used can be identified from the current literature, by screening a peptide library of potential protein kinase substrates, or by other applicable means accepted in the field.
The following table provides typical screen assay parameters appropriate for a Caliper HTS 250 microfluidics system used to assay AKT1. Parameters used to assay other protein kinases can be determined by one skilled in the art. […]
Assays to determine the kinase inhibitory activity of compounds of the present disclosure were performed using a Caliper HTS 250 microfluidics device, Greiner U-bottom assay plates, a Multidrop for transfer of reagents, and Biomek FX (AMNCBM03) software. […] The inhibition of the ATP-utilizing enzyme, such as a particular protein kinase, was determined by measuring the ratio of the peptide substrate to phosphorylated product for each well of the assay plate using the Caliper HTS 250 system.

Chain of AKT1 (P31749 whole entry): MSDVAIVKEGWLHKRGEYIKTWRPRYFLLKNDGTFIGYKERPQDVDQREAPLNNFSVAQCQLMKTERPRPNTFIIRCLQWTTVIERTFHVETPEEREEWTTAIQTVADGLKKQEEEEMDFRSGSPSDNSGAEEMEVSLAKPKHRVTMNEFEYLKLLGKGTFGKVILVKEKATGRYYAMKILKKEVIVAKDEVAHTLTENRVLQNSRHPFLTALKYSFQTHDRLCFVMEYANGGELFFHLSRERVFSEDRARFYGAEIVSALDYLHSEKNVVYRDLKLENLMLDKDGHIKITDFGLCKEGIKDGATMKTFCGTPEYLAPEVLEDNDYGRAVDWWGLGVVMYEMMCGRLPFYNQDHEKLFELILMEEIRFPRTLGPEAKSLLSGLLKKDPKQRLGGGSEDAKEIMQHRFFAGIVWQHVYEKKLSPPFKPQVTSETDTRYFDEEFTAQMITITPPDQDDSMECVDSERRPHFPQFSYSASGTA

The inhibition is the change of the read-out against control, counted positive when it falls. For `O=C(O)CN(CCN(CC(=O)O)CC(=O)O)CC(=O)O` [EDTA, ethylenediaminetetraacetic acid], under “inhibitor concentration 20 mM, AKT1 screen”, the inhibition at 20000 µM came to 100%.
Consider `CN[C@@H]1C[C@H]2O[C@@](C)([C@@H]1OC)n1c3ccccc3c3c4c(c5c6ccccc6n2c5c31)C(=O)NC4` [Staurosporine], for which the inhibition at 0.138 µM is 70%.
